Results published in ChEMBL document CHEMBL5032495, “Discovery of Novel Tacrine-Pyrimidone Hybrids as Potent Dual AChE/GSK-3 Inhibitors for the Treatment of Alzheimer's Disease” (J Med Chem, 2021).
pIC50: −log10 of the molar value. Activity calls are given as the source filed them. No cut-off for these calls is given here.

What was measured:
[1] = Ratio of drug concentration in brain to plasma in ICR mouse at 15 mg/kg, ip measured after 4 hrs by UPLC-MS/MS analysis; type: ADME, organism-based
[2] = AUClast in ICR mouse at 5 mg/kg, iv measured upto 24 hrs by UPLC-MS/MS analysis; type: ADME, organism-based; parameters: route intravenous, dose 5 mg/kg, time <=24; settings: in vivo
[3] = MRTlast in ICR mouse at 5 mg/kg, iv measured upto 24 hrs by UPLC-MS/MS analysis; type: ADME, organism-based; settings: in vivo
[4] = Ratio of drug concentration in brain to plasma in ICR mouse at 15 mg/kg, ip measured after 2 hrs by UPLC-MS/MS analysis; type: ADME, organism-based
[5] = Drug concentration in ICR mouse brain at 15 mg/kg, ip measured after 1 hr by UPLC-MS/MS analysis; type: ADME, organism-based; settings: read-out: Drug uptake
[6] = Toxicity in ICR mouse assessed as swimming motility impairment at 15 mg/kg, ip measured after 15 days; type: organism-based; settings: in vivo, 360 h, time 15 day
[7] = Half life in ICR mouse at 15 mg/kg, ip measured upto 24 hrs by UPLC-MS/MS analysis; type: ADME, organism-based; settings: in vivo
[8] = Tmax in ICR mouse at 5 mg/kg, iv measured upto 24 hrs by UPLC-MS/MS analysis; type: ADME, organism-based; settings: in vivo
[9] = target: T1, Glycogen synthase kinase-3 beta (Homo sapiens, UniProt P49841); experiment: Inhibition of GSK-3beta in glyceraldehyde-treated human SH-SY5Y cells assessed as reduction in phosphorylated Tau levels at S199 site measured after 24 hrs by ELISA
Target sequence in this assay (P49841 whole entry, looked up): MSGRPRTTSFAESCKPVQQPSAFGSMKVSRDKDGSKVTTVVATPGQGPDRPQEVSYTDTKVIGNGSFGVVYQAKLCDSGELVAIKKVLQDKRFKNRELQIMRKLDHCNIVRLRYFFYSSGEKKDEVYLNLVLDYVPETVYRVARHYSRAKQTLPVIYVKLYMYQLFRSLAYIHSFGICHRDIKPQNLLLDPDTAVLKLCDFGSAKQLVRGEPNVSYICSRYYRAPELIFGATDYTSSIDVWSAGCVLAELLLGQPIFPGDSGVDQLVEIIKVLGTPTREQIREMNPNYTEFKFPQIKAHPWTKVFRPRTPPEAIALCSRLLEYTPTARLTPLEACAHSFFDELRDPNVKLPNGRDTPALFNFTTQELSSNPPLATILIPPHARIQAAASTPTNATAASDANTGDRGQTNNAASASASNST

[10] = target: T1, Glycogen synthase kinase-3 beta; experiment: Inhibition of GSK-3beta (unknown origin) at 1000 nM
Target sequence in this assay (P49841 whole entry, looked up): as above

[11] = Apparent oral clearance in ICR mouse at 5 mg/kg measured upto 24 hrs by UPLC-MS/MS analysis; type: ADME, organism-based; settings: in vivo
[12] = target: Glycogen synthase kinase-3 alpha (Homo sapiens) (UniProt P49840); experiment: Inhibition of GSK-3alpha (unknown origin) at 1000 nM
Chain of Glycogen synthase kinase-3 alpha (Homo sapiens) (P49840 2-483 limits assumed): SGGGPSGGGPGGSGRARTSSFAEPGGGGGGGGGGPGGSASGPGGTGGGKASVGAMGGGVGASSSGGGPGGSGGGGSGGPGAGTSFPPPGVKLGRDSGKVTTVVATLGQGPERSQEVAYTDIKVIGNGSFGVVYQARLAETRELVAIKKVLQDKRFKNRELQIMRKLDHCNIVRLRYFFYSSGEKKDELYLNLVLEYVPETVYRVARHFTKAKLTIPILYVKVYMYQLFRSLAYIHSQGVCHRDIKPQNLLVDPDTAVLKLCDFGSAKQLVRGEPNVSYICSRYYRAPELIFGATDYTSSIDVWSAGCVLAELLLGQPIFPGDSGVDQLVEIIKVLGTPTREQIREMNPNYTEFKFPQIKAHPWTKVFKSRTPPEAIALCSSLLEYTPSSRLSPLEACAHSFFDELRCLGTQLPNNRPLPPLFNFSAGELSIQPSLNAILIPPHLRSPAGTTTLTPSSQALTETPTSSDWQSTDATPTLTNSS

[13] = Drug concentration in ICR mouse plasma at 15 mg/kg, ip measured after 0.5 hrs by UPLC-MS/MS analysis; type: ADME, organism-based
[14] = AUClast in ICR mouse at 15 mg/kg, ip measured upto 24 hrs by UPLC-MS/MS analysis; type: ADME, organism-based; parameters: route intraperitoneal, dose 15 mg/kg, time <=24; settings: in vivo
[15] = Tmax in ICR mouse at 15 mg/kg, ip measured upto 24 hrs by UPLC-MS/MS analysis; type: ADME, organism-based; settings: in vivo
[16] = Drug concentration in ICR mouse brain at 15 mg/kg, ip measured after 0.5 hrs by UPLC-MS/MS analysis; type: ADME, organism-based; settings: read-out: Drug uptake
[17] = target: T1, Glycogen synthase kinase-3 beta
Target sequence in this assay (P49841 whole entry): as the sequence (P49841 whole entry, looked up) above
Description: Inhibition of human recombinant GSK-3beta using prephosphorylated polypeptide as substrate incubated for 30 mins in presence of ATP by Kinase-Glo luminescence assay

[18] = Ratio of drug concentration in brain to plasma in ICR mouse at 15 mg/kg, ip measured after 1 hr by UPLC-MS/MS analysis; type: ADME, organism-based
[19] = Apparent oral clearance in ICR mouse at 15 mg/kg measured upto 24 hrs by UPLC-MS/MS analysis; type: ADME, organism-based; settings: in vivo
Acetylcholinesterase = target: T2, Acetylcholinesterase (Mus musculus, UniProt P21836); experiment: Inhibition of mouse AChE using acetylthiocholine iodide as substrate incubated for 20 mins by Ellman's method
T2 sequence (P21836 whole entry): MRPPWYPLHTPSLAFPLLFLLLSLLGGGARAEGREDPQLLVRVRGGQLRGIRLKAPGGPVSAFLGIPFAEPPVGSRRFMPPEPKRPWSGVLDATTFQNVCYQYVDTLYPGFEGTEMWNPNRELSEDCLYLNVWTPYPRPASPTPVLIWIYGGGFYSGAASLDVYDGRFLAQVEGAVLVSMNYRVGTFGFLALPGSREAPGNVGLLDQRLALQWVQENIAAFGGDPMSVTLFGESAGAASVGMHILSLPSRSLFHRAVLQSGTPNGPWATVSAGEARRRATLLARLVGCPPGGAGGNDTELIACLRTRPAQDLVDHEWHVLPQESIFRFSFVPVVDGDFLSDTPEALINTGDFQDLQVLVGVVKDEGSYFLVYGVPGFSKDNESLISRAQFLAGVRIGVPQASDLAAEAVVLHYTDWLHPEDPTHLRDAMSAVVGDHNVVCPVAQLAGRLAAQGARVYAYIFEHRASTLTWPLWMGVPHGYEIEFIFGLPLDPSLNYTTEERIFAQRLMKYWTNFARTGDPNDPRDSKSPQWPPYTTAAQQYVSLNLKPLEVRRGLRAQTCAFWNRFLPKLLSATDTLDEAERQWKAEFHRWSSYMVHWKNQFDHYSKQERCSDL

[20] = MRTlast in ICR mouse at 15 mg/kg, ip measured upto 24 hrs by UPLC-MS/MS analysis; type: ADME, organism-based; settings: in vivo
[21] = Drug concentration in ICR mouse plasma at 15 mg/kg, ip measured after 4 hrs by UPLC-MS/MS analysis; type: ADME, organism-based
[22] = Ratio of drug concentration in brain to plasma in ICR mouse at 15 mg/kg, ip measured after 0.5 hrs by UPLC-MS/MS analysis; type: ADME, organism-based
[23] = Volume of distribution in ICR mouse at 5 mg/kg, iv measured upto 24 hrs by UPLC-MS/MS analysis; type: ADME, organism-based; settings: in vivo
SH-SY5Y [24] = experiment: Neuroprotective activity against glyceraldehyde-induced neurotoxicity in human SH-SY5Y cells assessed as increase in cell viability at 0.5 to 5 uM incubated for 24 hrs by MTT assay; type: functional, cell-based; settings: dose 0.5-5 µM
[25] = Drug concentration in ICR mouse brain at 15 mg/kg, ip measured after 2 hrs by UPLC-MS/MS analysis; type: ADME, organism-based; settings: read-out: Drug uptake
[26] = Drug concentration in ICR mouse plasma at 15 mg/kg, ip measured after 1 hr by UPLC-MS/MS analysis; type: ADME, organism-based
[27] = Cmax in ICR mouse at 15 mg/kg, ip measured upto 24 hrs by UPLC-MS/MS analysis; type: ADME, organism-based; parameters: route intraperitoneal, dose 15 mg/kg, time <=24; settings: in vivo
[28] = Drug concentration in ICR mouse brain at 15 mg/kg, ip measured after 4 hrs by UPLC-MS/MS analysis; type: ADME, organism-based; settings: read-out: Drug uptake
[29] = target: T1, Glycogen synthase kinase-3 beta; experiment: Inhibition of GSK-3beta in glyceraldehyde-treated human SH-SY5Y cells assessed as reduction in phosphorylated Tau levels at S396 site measured after 24 hrs by ELISA
Target sequence in this assay (P49841 whole entry, looked up): as the sequence (P49841 whole entry, looked up) above

[30] = Bioavailability in ICR mouse at 15 mg/kg, ip measured upto 24 hrs by UPLC-MS/MS analysis; type: ADME, organism-based; settings: in vivo
SH-SY5Y [31] = experiment: Neuroprotective activity in human SH-SY5Y cells assessed as prevention of glyceraldehyde-induced neurite shortening at 0.5 to 5 uM incubated for 1 hr by confocal microsocopic analysis; type: functional, cell-based; settings: dose 0.5-5 µM
[32] = Half life in ICR mouse at 5 mg/kg, iv measured upto 24 hrs by UPLC-MS/MS analysis; type: ADME, organism-based; settings: in vivo
[33] = Volume of distribution in ICR mouse at 15 mg/kg, ip measured upto 24 hrs by UPLC-MS/MS analysis; type: ADME, organism-based; settings: in vivo
[34] = Drug concentration in ICR mouse plasma at 15 mg/kg, ip measured after 2 hrs by UPLC-MS/MS analysis; type: ADME, organism-based
[35] = Toxicity in ICR mouse assessed as diarrhea at 15 mg/kg, ip measured after 15 days; type: organism-based; settings: in vivo, 360 h, time 15 day
[36] = Toxicity in ICR mouse assessed as emesis at 15 mg/kg, ip measured after 15 days; type: organism-based; settings: in vivo, 360 h, time 15 day
[37] = Cmax in ICR mouse at 5 mg/kg, iv measured upto 24 hrs by UPLC-MS/MS analysis; type: ADME, organism-based; parameters: route intravenous, dose 5 mg/kg, time <=24; settings: in vivo

Question: Which Kp at 4 h [1] does the source give for `Cn1c(NCCCCCCCNc2c3c(nc4cc(Cl)ccc24)CCCC3)nc(-c2ccncc2F)cc1=O` here?
Answer: Its Kp at 4 h is 1.92.

Question: What about the AUC(0-t) at 24 h [2] of the same compound?
Answer: Its AUC(0-t) at 24 h is 1.56 µg·h/mL.

Question: And the MRT last at 24 h [3]?
Answer: Its MRT last at 24 h is 183 min.

Question: What about the Kp at 2 h [4] of the same compound?
Answer: The Kp at 2 h was 0.522.

Question: What about the concentration at 1 h [5] of the same compound?
Answer: The concentration at 1 h was 11.1 ng/g.

Question: And the Activity [6]?
Answer: Its Activity is “Non-Toxic”.

Question: And the half-life [7]?
Answer: Its half-life is 69 min.

Question: What about the Tmax [8] of the same compound?
Answer: The Tmax was 1.98 min.

Question: What about the inhibition [9] of the same compound?
Answer: The inhibition was “Dose-Dependent Effect”.

Question: What about the inhibition [10] of the same compound?
Answer: Its inhibition is “Active”.

Question: What about the CL/F [11] of the same compound?
Answer: The CL/F was 0.0513 mL/min/kg.

Question: What about the inhibition [12] of the same compound?
Answer: Its inhibition is “Active”.

Question: What about the concentration at 0.5 h [13] of the same compound?
Answer: Its concentration at 0.5 h is 0.867 µg/mL.

Question: And the AUC(0-t) at 24 h [14]?
Answer: Its AUC(0-t) at 24 h is 1.66 µg·h/mL.

Question: What about the Tmax [15] of the same compound?
Answer: Its Tmax is 8.34 min.

Question: And the concentration at 0.5 h [16]?
Answer: The concentration at 0.5 h was 23.6 ng/g.

Question: What about the pIC50 [17] of the same compound?
Answer: Its pIC50 is 4.05.

Question: What about the Kp at 1 h [18] of the same compound?
Answer: Its Kp at 1 h is 0.148.

Question: And the CL/F [19]?
Answer: Its CL/F is 0.152 mL/min/kg.

Question: And the pIC50 (Acetylcholinesterase)?
Answer: The pIC50 was 4.29.

Question: And the MRT last at 24 h [20]?
Answer: Its MRT last at 24 h is 46.8 min.

Question: What about the concentration at 4 h [21] of the same compound?
Answer: Its concentration at 4 h is 0.00347 µg/mL.

Question: And the Kp at 0.5 h [22]?
Answer: Its Kp at 0.5 h is 0.028.

Question: What about the Vd [23] of the same compound?
Answer: The Vd was 16.4 L/kg.

Question: And the Activity (SH-SY5Y [24])?
Answer: The Activity was “Active”.

Question: And the concentration at 2 h [25]?
Answer: The concentration at 2 h was 12.2 ng/g.

Question: And the concentration at 1 h [26]?
Answer: The concentration at 1 h was 0.0767 µg/mL.

Question: And the Cmax [27]?
Answer: The Cmax was 1.87 µg/mL.

Question: And the concentration at 4 h [28]?
Answer: Its concentration at 4 h is 5.99 ng/g.

Question: What about the inhibition [29] of the same compound?
Answer: Its inhibition is “Dose-Dependent Effect”.

Question: What about the bioavailability [30] of the same compound?
Answer: Its bioavailability is 35.3%.

Question: What about the Activity (SH-SY5Y [31]) of the same compound?
Answer: Its Activity is “Dose-Dependent Effect”.

Question: What about the half-life [32] of the same compound?
Answer: Its half-life is 219 min.

Question: And the Vd [33]?
Answer: Its Vd is 14.14 L/kg.

Question: What about the concentration at 2 h [34] of the same compound?
Answer: The concentration at 2 h was 0.0267 µg/mL.

Question: And the Activity [35]?
Answer: Its Activity is “Non-Toxic”.

Question: What about the Activity [36] of the same compound?
Answer: Its Activity is “Non-Toxic”.

Question: What about the Cmax [37] of the same compound?
Answer: The Cmax was 2.81 µg/mL.
